Where “and” joins values, the source holds several entries; their conditions need not be identical. Identical values can stand only once.

For experiment [1] the following is noted: particularly in combination with Atorvastatin; cited from earlier work.
The conditions of experiment [2]: clinical studies; cited from earlier work.
Another experiment has as its system rabbits. Particulars: 30 mg/kg; cited from earlier work.
The subject of experiment [3] is rabbits had severe hypercholesterolemia. Conditions: rabbits with severe hypercholesterolemia; cited from earlier work.
In another experiment the target is T1, CETP (Homo sapiens, UniProt P11597).
T1 construct: from tissue; host or cells: human plasma from normal volunteers
T1 sequence (P11597 18-493): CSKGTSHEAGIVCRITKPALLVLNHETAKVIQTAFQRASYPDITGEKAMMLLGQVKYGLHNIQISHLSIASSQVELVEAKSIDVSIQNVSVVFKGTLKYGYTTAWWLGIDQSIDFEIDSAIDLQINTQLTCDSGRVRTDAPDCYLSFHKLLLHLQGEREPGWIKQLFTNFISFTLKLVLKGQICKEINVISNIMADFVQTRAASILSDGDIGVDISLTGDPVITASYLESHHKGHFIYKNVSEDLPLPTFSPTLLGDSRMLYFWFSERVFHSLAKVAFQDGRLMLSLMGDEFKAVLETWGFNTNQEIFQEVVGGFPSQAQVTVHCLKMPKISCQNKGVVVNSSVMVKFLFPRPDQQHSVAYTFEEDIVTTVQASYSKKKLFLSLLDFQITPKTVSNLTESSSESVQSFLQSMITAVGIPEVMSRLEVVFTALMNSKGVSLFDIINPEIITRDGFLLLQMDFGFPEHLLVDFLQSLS
The experiment can be described thus: CETP in vitro assay (Amersham kit TRKQ7005; modified protocol in human plasma, [3H]CE-HDL transfer). The experiment is classed as biochemical. Particulars: for % Inhibition @ 1 μM / inhibition at 1 µM: 1 μM compound; for IC50: from plots of % control versus compound concentration; for inhibition at 1 µM: read-out: % Inhibition @ 1 μM. Summed up:
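IC50 values were derived by plotting % of vehicle control against compound concentration. Transfer was quantified by counting supernatant radioactivity after Dextralip/MgCl2 precipitation. Compound, human plasma and [3H]CE-HDL (about 25 μg/ml, as added) were incubated 4 h or more at 37 °C, with a 4 °C plate as the non-specific blank.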

Another experiment concerns cholesterol-fed hamsters. Nature of the experiment: CETP in vivo assay: lipid parameters in cholesterol-fed hamsters. Conditions: plasma, mean ± SEM, n = 8. As to the method: To determine the in vivo efficacy of a test compound, hamsters were first fed a moderately high cholesterol diet (Research Diets, D5012801) for two weeks before commencing treatment. The animals were orally gavaged with the vehicle (10% solutol, 5% ethanol, 85% D5W) and test compound for 5 days with the last dose being administered 2 hrs before sacrifice. Plasma was obtained and lipid parameters were measured.

Where [4] appears, read: 10 mg/kg oral gavage for 5 days.
Setting [5] is: 30 mg/kg oral gavage for 5 days.

Consider `CCOC(=O)N1c2ccc(C(F)(F)F)cc2[C@@H](N(Cc2cc(C(F)(F)F)cc(C(F)(F)F)c2)C(=O)OC)C[C@H]1CC` [Torcetrapib], for which the “results in Phase II trials” value in experiment [1] was “positive results in Phase II trials”.

With `CCC(CC)CC1(C(=O)Nc2ccccc2SC(=O)C(C)C)CCCCC1` [JTT-705], in experiment [2], the HDL-C result is on record as “raise HDL-C”, the LDL-C result is recorded as “modestly lower LDL-C” and the triglyceride levels result was “not alter triglyceride levels”. In the experiment on rabbits, the CETP activity entry is “inhibited CETP activity”, the “increased HDL-C” value was “+90%”, the reduced lesion size is −70% and the “reduced non-HDL-C cholesterol” value was −50%. Besides, in experiment [3], the lesion development result is listed as “not efficacious in preventing lesion development” and the plasma triglycerides result was “significant elevations of plasma triglycerides”.

As a reminder, the IC50 is the concentration that inhibits the measured activity by half. Low readings indicate higher potency, high ones lower potency. With `OC(CN1c2cccc(Oc3cccc(Cl)c3Cl)c2CCC1c1cccc(OC(F)(F)C(F)F)c1)C(F)(F)F` (stereo not shown) [Compound 87, 3-{5-(2,3-Dichloro-phenoxy)-2-[3-(1,1,2,2-tetrafluoro-ethoxy)-phenyl]-3,4-dihydro-2H-quinolin-1-yl}-1,1,1-trifluoro-propan-2-ol], at CETP, the “% Inhibition @ 1 μM” value worked out at 86% and the midpoint of inhibition, the IC50, lay at 400 nM.

For `OC(CN1c2cccc(-c3cccc(C(F)(F)F)c3)c2CCC1c1cccc(OC(F)(F)C(F)F)c1)C(F)(F)F` (stereo not shown) [Compound 14], the “% Inhibition @ 1 μM” value at CETP came out at 37%.

Turning to `OC(CN1c2cccc(-c3cccc(OC(F)(F)F)c3)c2CCC1c1ccccc1OC(F)(F)C(F)F)C(F)(F)F` (stereo not shown) [Compound 90, 1,1,1-Trifluoro-3-[2-[2-(1,1,2,2-tetrafluoro-ethoxy)-phenyl]-5-(3-trifluoromethoxy-phenyl)-3,4-dihydro-2H-quinolin-1-yl]-propan-2-ol], the “% Inhibition @ 1 μM” value on CETP was determined as 0%.

In the case of `OC(CN1c2cccc(-c3cccc(OC(F)(F)F)c3)c2CCC1c1ccc(OC(F)(F)C(F)F)cc1)C(F)(F)F` (stereo not shown) [Compound 22, 1,1,1-Trifluoro-3-[2-[4-(1,1,2,2-tetrafluoro-ethoxy)-phenyl]-5-(3-trifluoromethoxy-phenyl)-3,4-dihydro-2H-quinolin-1-yl]-propan-2-ol], at CETP, the “% Inhibition @ 1 μM” value is 14%.

As to `CC(C)C(O)CN1c2cccc(-c3cccc(OC(F)(F)F)c3)c2CCC1c1cccc(OC(F)(F)F)c1` (stereo not shown) [Compound 46, 1-[2,5-Bis-(3-trifluoromethoxy-phenyl)-3,4-dihydro-2H-quinolin-1-yl]-3-methyl-butan-2-ol], the “% Inhibition @ 1 μM” value on CETP is reported as 22%.

With `Oc1cccc(-c2cccc3c2CCC(c2cccc(OC(F)(F)C(F)F)c2)N3CC(O)C(F)(F)F)c1` (stereo not shown) [Compound 42, 3-[2-[3-(1,1,2,2-Tetrafluoro-ethoxy)-phenyl]-1-(3,3,3-trifluoro-2-hydroxy-propyl)-1,2,3,4-tetrahydro-quinolin-5-yl]-phenol], at CETP, the “% Inhibition @ 1 μM” value is 97% and 106%; the IC50 came to 231 nM.

As to `OC(CN1c2cccc(-c3cccc(OC(F)(F)F)c3)c2CCC1c1ccc(OC(F)(F)C(F)F)cc1)C(F)(F)F` (stereo not shown) [Compound 21, 1,1,1-Trifluoro-3-[2-[4-(1,1,2,2-tetrafluoro-ethoxy)-phenyl]-5-(3-trifluoromethoxy-phenyl)-3,4-dihydro-2H-quinolin-1-yl]-propan-2-ol], on CETP, the “% Inhibition @ 1 μM” value was determined as 5%.

What is called inhibition is the relative decrease from the control value, in per cent. As to `O[C@@H](CN1c2cccc(-c3cccc(OC(F)(F)F)c3)c2CC[C@@H]1c1cccc(OC(F)(F)C(F)F)c1)C(F)(F)F` [Compound 78, (S)-1,1,1-trifluoro-3-((R)-2-(3-(1,1,2,2-tetrafluoroethoxy)phenyl)-5-(3-(trifluoromethoxy)phenyl)-3,4-dihydroquinolin-1 (2H)-yl)propan-2-ol], at CETP, the “% Inhibition @ 1 μM” value was 79%; the inhibition at 1 µM turned out to be 85%; the IC50 is 34 nM and 44 nM. Besides, the “HDL-C” value in the experiment on cholesterol-fed hamsters (3 mg/kg oral gavage for 5 days, last dose 2 hrs before sacrifice) is on record as 96.2 ± 4.9 mg/dL. Also, in the experiment with cholesterol-fed hamsters (3 mg/kg oral gavage for 5 days), the HDL-C/LDL-C was determined as 3.1 ± 0.2, the “LDL-C” value is listed as 31.6 ± 1.9 mg/dL, the “Total Cholesterol” value turned out to be 149.3 ± 7.7 mg/dL and the “Triglycerides” value was 217.7 ± 18.1 mg/dL. Besides, in the experiment on cholesterol-fed hamsters (setting [4]), the “HDL-C” value is reported as 117.9 ± 2.9 mg/dL, the HDL-C/LDL-C is listed as 4.3 ± 0.3, the “LDL-C” value was 28.1 ± 1.8 mg/dL and the “Total Cholesterol” value is reported as 178.5 ± 5.4 mg/dL. Further, the “Triglycerides” value in the experiment with cholesterol-fed hamsters (setting [4]) was 325.6 ± 24.3 mg/dL. In the experiment on cholesterol-fed hamsters (setting [5]), the “HDL-C” value worked out at 121.4 ± 2.5 mg/dL, the HDL-C/LDL-C worked out at 4.6 ± 0.4, the “LDL-C” value came to 27.9 ± 2.5 mg/dL and the “Total Cholesterol” value came to 188.4 ± 9.2 mg/dL. Moreover, the “Triglycerides” value in the experiment on cholesterol-fed hamsters (setting [5]) amounted to 350.8 ± 10.9 mg/dL.

Regarding `C[C@@H](O)CN1c2cccc(-c3cccc(OC(F)(F)F)c3)c2CC[C@@H]1c1cccc(OC(F)(F)F)c1` [Compound 53], at CETP, the “% Inhibition @ 1 μM” value was 57% and 77% and 84%; the half-inhibitory concentration (IC50) was 90 nM and 199 nM and 85 nM.

On to `OC(CN1c2cccc(-c3cccc(OC(F)(F)F)c3)c2CCC1C1CCCCC1)C(F)(F)F` (stereo not shown) [Compound 38, 3-[2-Cyclohexyl-5-(3-trifluoromethoxy-phenyl)-3,4-dihydro-2H-quinolin-1-yl]-1,1,1-trifluoro-propan-2-ol], for which the “% Inhibition @ 1 μM” value at CETP was found to be 2%.

`OC(CN1c2cccc(-c3cccc(OC(F)(F)F)c3)c2CCC1C1CCCCC1)C(F)(F)F` (stereo not shown) [Compound 37, 3-[2-Cyclohexyl-5-(3-trifluoromethoxy-phenyl)-3,4-dihydro-2H-quinolin-1-yl]-1,1,1-trifluoro-propan-2-ol]: on CETP, the “% Inhibition @ 1 μM” value turned out to be 11%.

Consider `OC(CN1c2cccc(-c3cccc(OC(F)(F)F)c3)c2CCC1c1cccc(OC(F)(F)C(F)F)c1)C(F)(F)F` (single isomer, unassigned) [Compound 1, 1,1,1-Trifluoro-3-[2-[3-(1,1,2,2-tetrafluoro-ethoxy)-phenyl]-5-(3-trifluoromethoxy-phenyl)-3,4-dihydro-2H-quinolin-1-yl]-propan-2-ol], for which, at CETP, the inhibition at 1 µM was 100%; the IC50 is 7 nM and 25 nM and 30 nM.

With `OC(CN1c2cccc(-c3cccc(OC(F)(F)F)c3)c2CCC1c1cccc(OC(F)(F)C(F)F)c1)C(F)(F)F` (single isomer, unassigned) [Compound 2, 1,1,1-Trifluoro-3-[2-[3-(1,1,2,2-tetrafluoro-ethoxy)-phenyl]-5-(3-trifluoromethoxy-phenyl)-3,4-dihydro-2H-quinolin-1-yl]-propan-2-ol], at CETP, the “% Inhibition @ 1 μM” value is listed as 86%; the IC50 is 450 nM and 150 nM.

On to `OC(CN1c2cccc(-c3ccc(OC(F)(F)F)cc3)c2CCC1c1cccc(OC(F)(F)C(F)F)c1)C(F)(F)F` (stereo not shown) [Compound 8, 1,1,1-Trifluoro-3-[2-[3-(1,1,2,2-tetrafluoro-ethoxy)-phenyl]-5-(4-trifluoromethoxy-phenyl)-3,4-dihydro-2H-quinolin-1-yl]-propan-2-ol], for which the “% Inhibition @ 1 μM” value at CETP was 29% and 36%.
